The test system of series [1] is RAW 264.7 cells. Kind of series: Nitric oxide detection assay (Griess) in LPS-stimulated cells. The class given is cell-based, mouse. Particulars: for nitric oxide production: 50 µM of single cannabinoid (FIG. 1); for nitric oxide production while minimally affecting cell viability: lower dose, 25 µM, compared with effect at 50 µM (FIG. 1). The procedure:
(§1) Cell lines were cultured according to standard mammalian tissue culture protocols and sterile technique. Adherent human epithelial endometriosis 12Z and mouse monocytes RAW 264.7 cell lines were cultured in high glucose Dulbecco’s Modified Eagle Medium (DMEM) supplemented with 1% sodium pyruvate. Human monocytes THP-1 cell line were cultured in RPMI medium 1640. All media was supplemented with 10% fetal bovine serum, streptomycin […], penicillin (100 U/ml) and Nystatin (12.5 U/ml). Cells were incubated in 5% CO2 at 37° C. All tissue culture cells were maintained in 75 cm^2 cell culture treated flask (Eppendorf) and all the media and supplements were obtained from Biological Industries. Treatment were performed by plating cells in a 96 micro well delta surface plates (Eppendorf) in a starting confluence of 1 × 10^4 cells/well.
RAW 264.7 cells were seeded in a 96-well plate at a density of 1 × 10^4 cells/well (n=4) in 100 µl cell specific media (DMEM high glucose supplemented with 10% FBS, 1% PSN and 1% Sodium pyruvate). After 24 hours, cells were treated with varying concentrations of cannabis samples using specific media containing 5% FBS. After 1 hour, treated and untreated cells, were stimulated by Lipopolysaccharides (LPS) at a final concentration of 1 µg/ml. Cells supernatants were harvest after 24 h for nitric oxide radical (NO•) assay by addition of 50 µl of the supernatant to an equal volume of Griess reagent (1% sulfanilamide, 0.1% naphthalene diamine and 2% H3PO4). After 10 min of incubation, the resultant color was measured at 540 nm. Results were presented as proportional (%) by comparing between treated and untreated groups. Anti-inflammatory potential of an extract in preventing Nitric oxide production was determined by the ratio between nitric oxide and cell viability values: Ratio < 0.5 = High effect; Ratio between 0.5-0.7 = Moderate effect; Ratio […] = Low effect; and Ratio > 1 = No effect.

The test system of series [2] is RAW 264.7 cells. Nature of the series: MTT viability assay. Particulars: for cell viability: 50 µM of single cannabinoid (FIG. 1). The class given is cell-based, mouse. How it is done:
as §1
The viability of the cells following treatment was determined using a commercially available MTT assay kit (Abcam, ab 146345) and performed according to manufacturer’s instructions. Briefly, cells were seeded in a 96-well plate at a density of 1 × 10^4 cells/well (n=4) in 100 µl cell specific media. After overnight plating, cells were exposed to varying concentrations of cannabis samples in 100 µl of specific media. Then, plates were incubated in a humidified atmosphere containing 5% CO2 in air at 37° C. for 24 hours. According to the MTT standard protocol, after 24 h treatment, the media was removed, and all cells were incubated with serum-free media containing 0.5 mg/ml MTT for 4 hours at the incubator. The MTT purple crystals formed by the viable cells were dissolved using isopropanol containing 0.04 mol/L HCl. The quantification was determined by measuring the optical density at 570 nm in a spectrophotometer reader (Spark, Tecan). Results were presented as proportional viability (%) by comparing between treated and untreated groups. Cytotoxic potential of an extract was determined according to the following criteria: Non-cytotoxic -Viability is ≥ 70% of vehicle control; Cytotoxic - Viability is reduced to less than 70% of vehicle control.
(Formazan colour is commonly taken as a measure of viable cells.)

As for `CCCCCc1cc(O)c2c(c1)OC(C)(C)c1ccc(C)cc1-2` [CBN, cannabinol], the nitric oxide production result in series [1] is reported as “reduced nitric oxide production”. Also, the cell viability entry in series [2] is reported as “minimally affecting cell viability or not affecting cell viability at all”.
In the case of `CCCCCc1cc2c(c(O)c1C(=O)O)-c1cc(C)ccc1C(C)(C)O2` [CBNA, cannabinolic acid], in series [1], the nitric oxide production entry is on record as “reduced nitric oxide production” and the “nitric oxide production while minimally affecting cell viability” value is on record as “comparable effect”. Besides, the cell viability result in series [2] is “minimally affecting cell viability or not affecting cell viability at all”.
As to `CCCCCc1cc(O)c(C/C=C(\C)CCC=C(C)C)c(O)c1` [CBG, cannabigerol], the nitric oxide production result in series [1] is on record as “reduced nitric oxide production”.
`O=c1cc(-c2ccc(O)cc2)oc2cc(O)cc(O)c12` [Apigenin, apigenin]: in series [2] (mouse, 24 h, 50 µM), the “cell viability (exception to 'no substantial effect on cell viability')” value is reported as “excluding 50 µM of Apigenin”.
Take `CCCCCc1cc2c(c(O)c1C(=O)O)C=CC(C)(CCC=C(C)C)O2` (stereo not drawn) [CBCA, cannabichromenic acid]: in series [1], the nitric oxide production entry was “reduced nitric oxide production” and the “nitric oxide production while minimally affecting cell viability” value was “comparable effect”. Moreover, the cell viability result in series [2] is reported as “minimally affecting cell viability or not affecting cell viability at all”.
In the case of `CCCCCc1cc2c(c(O)c1C(=O)O)[C@@H]1C=C(C)CC[C@H]1C(C)(C)O2` [THCA, tetrahydrocannabinolic acid], the nitric oxide production result in series [1] is listed as “reduced nitric oxide production”. The cell viability result in series [2] was “minimally affecting cell viability or not affecting cell viability at all”.
For the compound `CCCCCc1cc(O)c2c(c1)OC(C)(CCC=C(C)C)C=C2` (stereo not drawn) [CBC, cannabichromene], the nitric oxide production result in series [1] was “reduced nitric oxide production”. Besides, in series [2], the cell viability entry is recorded as “minimally affecting cell viability or not affecting cell viability at all”.
Regarding `CCCc1cc2c(c(O)c1C(=O)O)[C@@H]1C=C(C)CC[C@H]1C(C)(C)O2` [THCVA, tetrahydrocannabivarinic acid], the nitric oxide production result in series [1] is recorded as “reduced nitric oxide production”. Besides, the cell viability result in series [2] is recorded as “minimally affecting cell viability or not affecting cell viability at all”.
On the same counts, the results for `CCCc1cc(O)c2c(c1)OC(C)(C)[C@@H]1CCC(C)=C[C@@H]21` [THCV, tetrahydrocannabivarin] are “reduced nitric oxide production” and “minimally affecting cell viability or not affecting cell viability at all”.

Values taken from patent publication US20230201157A1, “COMPOSITIONS OF CANNABINOIDS AND METHODS OF USING SAME” (ASANA BIO GROUP LTD., priority 2020, published 2023).
